Structures can show the parent of a compound that is named as a salt.
Tested on: Male Sprague-Dawley rats
Assay: Formalin test (analgesia)
Type: in vivo
Details: Rattus norvegicus, ip, intraperitoneally 5 minutes before injection of 50 μL 5% formalin into rear paw, nocifensive behaviors, read-out: (MED) minimally effective dose, formalin test
Protocol: Another in vivo protocol utilized to determine the effectiveness of nicotinic acetylcholine receptor ligands as analgesic agents was the formalin test.
Male Sprague-Dawley rats (Charles River, Portage, Mich.) weighing 200 to 400 grams were used for all experiments. After a 20 minute period of acclimation to individual cages, 50 μL of a 5% formalin solution was injected subcutaneous into the dorsal aspect of one of the rear paws and the rats were then returned to the clear observation cages suspended above mirror panels. […] Phase 1 of the formalin test was defined as the period of time immediately after injection of formalin until 10 minutes after the formalin injection (i.e., 0-10 minutes after formalin). Phase 2 was defined as the 20 minute period from 30 to 50 minutes after formalin injection. The investigator recorded nocifensive behaviors in the injected paw of four animals during the session by observing each animal for one 15 second observation period during each 1 minute interval. Nocifensive behaviors recorded included flinching, licking or biting the injected paw. In dose-response studies, the test compound (or saline) was administered intraperitoneally 5 minutes before injection of formalin.

Work on `c1cncc(N2C[C@@H]3CN[C@@H]3C2)c1` (relative stereo) [Example 38, (cis)-3-(3-pyridinyl)-3,6-diazabicyclo[3.2.0]heptane bis(4-methylbenzenesulfonate)] yielded a minimal effective dose greater than 6.2 µmol/kg.

Target: T1, neuronal nicotinic acetylcholine receptors (Rattus norvegicus, UniProt P09483+P12390)
T1 construct: crude synaptic membrane preparations from whole rat brain; from tissue; host or cells: whole rat brain, crude synaptic membranes
T1 sequence (P09483 31-630): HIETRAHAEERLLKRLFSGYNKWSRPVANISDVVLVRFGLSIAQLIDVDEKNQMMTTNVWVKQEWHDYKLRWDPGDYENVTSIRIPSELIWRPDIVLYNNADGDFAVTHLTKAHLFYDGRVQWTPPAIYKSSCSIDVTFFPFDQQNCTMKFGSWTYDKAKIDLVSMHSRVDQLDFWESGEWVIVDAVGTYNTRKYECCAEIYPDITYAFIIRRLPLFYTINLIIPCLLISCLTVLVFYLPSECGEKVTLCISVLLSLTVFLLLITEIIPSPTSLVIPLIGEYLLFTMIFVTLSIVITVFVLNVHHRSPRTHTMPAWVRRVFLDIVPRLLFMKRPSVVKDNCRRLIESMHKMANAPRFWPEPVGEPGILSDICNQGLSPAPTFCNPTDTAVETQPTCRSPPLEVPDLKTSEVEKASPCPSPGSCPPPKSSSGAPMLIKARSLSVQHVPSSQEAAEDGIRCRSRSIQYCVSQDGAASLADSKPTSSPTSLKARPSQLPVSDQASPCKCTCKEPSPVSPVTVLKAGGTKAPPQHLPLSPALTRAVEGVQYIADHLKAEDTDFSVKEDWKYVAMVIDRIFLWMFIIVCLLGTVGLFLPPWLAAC
T1 sequence (P12390 25-500): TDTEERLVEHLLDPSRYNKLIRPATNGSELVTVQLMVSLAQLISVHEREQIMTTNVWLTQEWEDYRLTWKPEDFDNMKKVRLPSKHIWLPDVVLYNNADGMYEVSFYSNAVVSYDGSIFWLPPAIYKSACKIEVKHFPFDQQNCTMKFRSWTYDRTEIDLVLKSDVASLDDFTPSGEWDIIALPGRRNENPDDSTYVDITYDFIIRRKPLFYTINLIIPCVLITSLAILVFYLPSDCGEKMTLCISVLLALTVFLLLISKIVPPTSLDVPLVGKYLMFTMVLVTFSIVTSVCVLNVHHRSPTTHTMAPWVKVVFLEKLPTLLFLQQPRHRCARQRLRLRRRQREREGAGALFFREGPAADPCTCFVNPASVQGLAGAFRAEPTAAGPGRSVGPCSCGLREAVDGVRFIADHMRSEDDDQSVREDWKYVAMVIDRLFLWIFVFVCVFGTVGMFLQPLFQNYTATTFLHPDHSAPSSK
Assay: Binding of [3H]-cytisine to neuronal nicotinic acetylcholine receptors, crude synaptic membranes from whole rat brain
Details: not given
Protocol: The In Vitro protocols for determination of nicotinic acetylcholine channel receptor binding potencies of ligands were determined as follows.
Washed membranes were stored at −80° C. prior to use. Frozen aliquots were slowly thawed and resuspended in 20 volumes of buffer (containing: 120 mM NaCl, 5 mM KCl, 2 mM MgCl2, 2 mM CaCl2 and 50 mM Tris-Cl, pH 7.4 @[…]). After centrifuging at 20,000×g for 15 minutes, the pellets were resuspended in 30 volumes of buffer.
The test compounds were dissolved in water to make 10 mM stock solutions. Each solution was then diluted (1:100) with buffer (as above) and further taken through seven serial log dilutions to produce test solutions from 10^−5 to 10^−11 M.
Samples were incubated for 60 minutes at 4° C., then rapidly filtered through Whatman GF/B filters presoaked in 0.5% polyethyleneimine using 3×4 mL of ice-cold buffer. The filters are counted in 4 mL of Ecolume® (ICN). Nonspecific binding was determined in the presence of 10 μM (−)-nicotine and values were expressed as a percentage of total binding. IC50 values were determined with the RS-1 (BBN) nonlinear least squares curve-fitting program and IC50 values were converted to Ki values using the Cheng and Prusoff correction (Ki=IC50/(1+[ligand]/Kd of ligand).

In order of rising Ki:
1. Clc1ccc(N2CC[C@H]3CN[C@H]3C2)cn1 [Example 49, (1R,6S)-3-(6-chloro-3-pyridinyl)-3,8-diazabicyclo[4.2.0]octane fumarate]  0.02 nM
2. Clc1ccc(N2CC[C@H]3CN[C@H]3C2)cn1 (relative stereo) [Example 42, (cis)-3-(6-chloro-3-pyridinyl)-3,8-diazabicyclo[4.2.0]octane bis(4-methylbenzenesulfonate)]  0.03 nM
3. Cc1cc(N2C[C@@H]3CCNC[C@@H]32)cnc1Cl [Example 90, (1R,6S)-8-(6-chloro-5-methyl-3-pyridinyl)-3,8-diazabicyclo[4.2.0]octane fumarate]  0.04 nM
4. N#Cc1cncc(N2C[C@H]3CN[C@H]3C2)c1 [Example 79, 5-[(1R,5R)-3,6-diazabicyclo[3.2.0]hept-3-yl]nicotinonitrile fumarate]  0.12 nM
5. COc1cc(N2C[C@H]3CNC[C@H]32)cnc1Br [Example 95, (1R,5S)-6-(6-bromo-5-methoxy-3-pyridinyl)-3,6-diazabicyclo[3.2.0]heptane 4-methylbenzenesulfonate]  0.12 nM
6. c1cncc(N2C[C@@H]3CN[C@@H]3C2)c1 (relative stereo) [Example 38, (cis)-3-(3-pyridinyl)-3,6-diazabicyclo[3.2.0]heptane bis(4-methylbenzenesulfonate)]  0.16 nM
7. Clc1ccc(N2C[C@H]3CN[C@H]3C2)cn1 [Example 80, (1R,5R)-3-(6-chloro-3-pyridinyl)-3,6-diazabicyclo[3.2.0]heptane fumarate]  0.17 nM
8. N#CCc1cc(N2C[C@H]3CCN[C@H]3C2)cnc1Br [Example 66, [5-((3aR,6aR)-hexahydropyrrolo[3,4-b]pyrrol-5(1H)-yl)-2-bromo-3-pyridinyl]acetonitrile fumarate]  0.26 nM
9. Clc1cc(N2C[C@H]3CCN[C@H]3C2)cnc1Br [Example 59, (3aR,6aR)-5-(6-bromo-5-chloro-3-pyridinyl)octahydropyrrolo[3,4-b]pyrrole fumarate]  0.35 nM
10. c1cncc(N2CC[C@@H]3CCN[C@@H]3C2)c1 (relative stereo) [Example 39, (cis)-6-(3-pyridinyl)octahydro-1H-pyrrolo[2,3-c]pyridine dihydrochloride]  0.54 nM
11. Clc1ccc(N2C[C@H]3CNC[C@H]32)cn1 (relative stereo) [Example 46, (cis)-6-(6-chloro-3-pyridinyl)-3,6-diazabicyclo[3.2.0]heptane fumarate]  0.73 nM
12. Oc1cncc(N2C[C@H]3CNC[C@H]3C2)c1 [Example 6, cis-2-(5-hydroxy-3-pyridinyl)octahydropyrrolo[3,4-c]pyrrole dihydrochloride]  0.75 nM
13. Clc1ccc(N2C[C@H]3CNC[C@H]32)cn1 [Example 57, (1R,5S)-6-(6-chloro-3-pyridinyl)-3,6-diazabicyclo[3.2.0]heptane fumarate]  1.2 nM
14. Clc1cc(N2C[C@@H]3CCN[C@@H]3C2)cnc1Cl [Example 25, (3aS,6aS)-5-(5,6-dichloro-3-pyridinyl)octahydropyrrolo[3,4-b]pyrrole hydrochloride]  1.4 nM
15. [N-]=[N+]=Nc1cncc(N2C[C@H]3CNC[C@H]32)c1 [Example 96, (1R,5S)-6-(5-azido-3-pyridinyl)-3,6-diazabicyclo[3.2.0]heptane fumarate]  1.9 nM
16. N#Cc1cncc(N2C[C@H]3CCNC[C@H]32)c1 [Example 61, 5-[(1S,6R)-3,8-diazabicyclo[4.2.0]oct-8-yl]nicotinonitrile fumarate]  2.5 nM
17. COc1cncc(N2C[C@@H]3CCN[C@@H]3C2)c1 [Example 32, (3aS,6aS)-5-(5-methoxy-3-pyridinyl)octahydropyrrolo[3,4-b]pyrrole 4-methylbenzenesulfonate]  5.3 nM
18. c1cncc(N2CC[C@@H]3CNC[C@@H]32)c1 [Example 75, (3aR,6aR)-1-(3-pyridinyl)octahydropyrrolo[3,4-b]pyrrole fumarate]  6.9 nM
19. N#Cc1cncc(N2CC[C@@H]3CNC[C@@H]32)c1 [Example 81, 5-((3aR,6aR)-hexahydropyrrolo[3,4-b]pyrrol-1(2H)-yl)nicotinonitrile]  11 nM
20. Brc1cncc(N2C[C@@H]3CCN[C@@H]3C2)c1 [Example 31, (3aS,6aS)-5-(5-bromo-3-pyridinyl)octahydropyrrolo[3,4-b]pyrrole 4-methylbenzenesulfonate]  14 nM
21. Clc1ccc(N2CC[C@H]3CNC[C@H]32)cn1 [Example 77, (3aS,6aS)-1-(6-chloro-3-pyridinyl)octahydropyrrolo[3,4-b]pyrrole fumarate]  19 nM
22. Clc1ccc(N2CC[C@@H]3CNC[C@@H]32)cn1 (relative stereo) [Example 16, cis-1-(6-chloro-3-pyridinyl)octahydropyrrolo[3,4-b]pyrrole hydrochloride]  23 nM
23. Clc1ccc(N2CC[C@@H]3CNC[C@@H]32)cn1 [Example 73, (3aR,6aR)-1-(6-chloro-3-pyridinyl)octahydropyrrolo[3,4-b]pyrrole fumarate]  24 nM
24. c1cncc(N2CC[C@H]3CNC[C@H]32)c1 [Example 78, (3aS,6aS)-1-(3-pyridinyl)octahydropyrrolo[3,4-b]pyrrole dihydrochloride]  25 nM
25. CN1C[C@H]2CCN(c3ccc(Cl)nc3)[C@H]2C1 (relative stereo) [Example 17, cis-1-(6-chloro-3-pyridinyl)-5-methyloctahydropyrrolo[3,4-b]pyrrole hydrochloride]  31 nM
26. CN1C[C@@H]2CN(c3ccc(Cl)nc3)C[C@@H]2C1 [Example 4, cis-2-(6-chloro-3-pyridinyl)-5-methyloctahydropyrrolo[3,4-c]pyrrole dihydrochloride]  36 nM
27. N#Cc1cncc(N2CC[C@H]3CNC[C@H]32)c1 [Example 83, 5-((3aS,6aS)-hexahydropyrrolo[3,4-b]pyrrol-1(2H)-yl)nicotinonitrile fumarate]  97 nM
28. Clc1ccc(N2C[C@H]3NCC[C@H]32)cn1 [Example 19, (1R,5R)-6-(6-chloro-3-pyridinyl)-2,6-diazabicyclo[3.2.0]heptane bis(4-methylbenzenesulfonate)]  576 nM

Same assay, conditions: [3H]-CYT 1.25 nM, whole rat brain membranes, 60 minutes at 4° C.; IC50 converted to Ki by Cheng and Prusoff correction; read-out: Average Ki

In order of rising Ki:
1. c1cncc(N2C[C@@H]3CCNC[C@@H]32)c1 [Example 92, (1R,6S)-8-(3-pyridinyl)-3,8-diazabicyclo[4.2.0]octane 4-methylbenzenesulfonate]  0.12 nM
2. Clc1cc(N2C[C@@H]3CCNC[C@@H]32)cnc1Cl [Example 94, (1R,6S)-8-(5,6-dichloro-3-pyridinyl)-3,8-diazabicyclo[4.2.0]octane 4-methylbenzenesulfonate]  0.12 nM
3. Cc1cc(N2C[C@H]3CCNC[C@H]32)cnc1Cl [Example 89, (1S,6R)-8-(6-chloro-5-methyl-3-pyridinyl)-3,8-diazabicyclo[4.2.0]octane fumarate]  0.24 nM
4. Clc1cc(N2C[C@H]3CCNC[C@H]32)cnc1Cl [Example 93, (1S,6R)-8-(5,6-dichloro-3-pyridinyl)-3,8-diazabicyclo[4.2.0]octane 4-methylbenzenesulfonate]  0.3 nM
5. COc1cncc(N2C[C@H]3CCNC[C@H]32)c1 [Example 88, (1S,6R)-8-(5-methoxy-3-pyridinyl)-3,8-diazabicyclo[4.2.0]octane fumarate]  0.56 nM
6. c1cncc(N2C[C@H]3CCNC[C@H]32)c1 [Example 91, (1S,6R)-8-(3-pyridinyl)-3,8-diazabicyclo[4.2.0]octane 4-methylbenzenesulfonate]  1.1 nM
7. c1cncc(N2C[C@@H]3CCN[C@@H]3C2)c1 [Example 30, (3aS,6aS)-5-(3-pyridinyl)octahydropyrrolo[3,4-b]pyrrole 4-methylbenzenesulfonate]  2.9 nM
8. c1cncc(N2C[C@H]3NCC[C@H]32)c1 [Example 20, (1R,5R)-6-(3-pyridinyl)-2,6-diazabicyclo[3.2.0]heptane bis(4-methylbenzenesulfonate)]  122 nM
9. c1cncc(N2CC[C@H]3NC[C@H]32)c1 [Example 18, (1R,5R)-2-(3-pyridinyl)-2,6-diazabicyclo[3.2.0]heptane bis(4-methylbenzenesulfonate)]  154 nM
10. Oc1cncc(N2CC[C@H]3CNC[C@H]32)c1 [Example 82, (3aS,6aS)-1-(5-hydroxy-3-pyridinyl)octahydropyrrolo[3,4-b]pyrrole dihydrochloride]  363 nM

Reference: US8119635B2, “Diazabicyclic central nervous system active agents” (Abbott Laboratories, priority 2000, dated 2012)
